# Assay results: US20050112573A1, “Method of detecting toxic substance” (priority 2001, published 2005)
# System: yeast genes (level of expressed mRNA)
# Test: DNA chip analysis of expressed mRNA of yeast genes after 2 h culture with a toxic chemical substance
# Format: cell-based, Saccharomyces cerevisiae S288C
# Outline: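 S. cerevisiae S288C in YPD at 25 °C was exposed at log phase for 2 h to a growth-inhibiting, non-lethal concentration of the chemical. Poly(A) mRNA was reverse-transcribed with Cy3- or Cy5-dUTP and hybridized to a whole-genome yeast DNA chip (65 °C, >12 h). Values are fluorescence ratios versus untreated cells.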
compound,measurement,setting,value
"CCCCC[C@H](O)CC(=O)CCc1ccc(O)c(OC)c1 [(13), gingerol]",level of expressed mRNA in the presence of chemical substance/in its absence,gene YAL012W,1.1
same,The level of expressed mRNA in the presence of chemical substance/absence: YAL014C,gene YAL014C,1.5
same,The level of expressed mRNA in the presence of chemical substance/absence: YAL017W,gene YAL017W,2.2
same,The level of expressed mRNA in the presence of chemical substance/absence: YAL018C,gene YAL018C,1.3
same,level of expressed mRNA in the presence of chemical substance/in its absence,gene YAL038W,1.8
same,level of expressed mRNA in the presence of chemical substance/in its absence,gene YAL044C,1.1
same,The level of expressed mRNA in the presence of chemical substance/absence: YAL049C,gene YAL049C,1.6
same,level of expressed mRNA in the presence of chemical substance/in its absence,gene YAL054C,1.8
same,The level of expressed mRNA in the presence of chemical substance/absence: YAR047C,gene YAR047C,1.4
same,The level of expressed mRNA in the presence of chemical substance/absence: YAR064W,gene YAR064W,1.1
same,level of expressed mRNA in the presence of chemical substance/in its absence,gene YAR071W,0.3
same,level of expressed mRNA in the presence of chemical substance/in its absence,gene YBL001C,1.0
same,The level of expressed mRNA in the presence of chemical substance/absence: YBL044W,gene YBL044W,0.7
same,The level of expressed mRNA in the presence of chemical substance/absence: YBL100C,gene YBL100C,0.9
same,The level of expressed mRNA in the presence of chemical substance/absence: YBR012C,gene YBR012C,2.1
same,The level of expressed mRNA in the presence of chemical substance/absence: YBR013C,gene YBR013C,2.0
same,level of expressed mRNA in the presence of chemical substance/in its absence,gene YBR014C,0.9
same,level of expressed mRNA in the presence of chemical substance/in its absence,gene YBR023C,0.5
same,level of expressed mRNA in the presence of chemical substance/in its absence,gene YBR029C,1.7
same,level of expressed mRNA in the presence of chemical substance/in its absence,gene YBR035C,1.8
same,level of expressed mRNA in the presence of chemical substance/in its absence,gene YBR050C,1.3
same,The level of expressed mRNA in the presence of chemical substance/absence: YBR051W,gene YBR051W,1.2
same,The level of expressed mRNA in the presence of chemical substance/absence: YBR063C,gene YBR063C,1.7
same,The level of expressed mRNA in the presence of chemical substance/absence: YBR066C,gene YBR066C,0.6
same,level of expressed mRNA in the presence of chemical substance/in its absence,gene YBR068C,2.2
same,level of expressed mRNA in the presence of chemical substance/in its absence,gene YBR111C,1.6
same,The level of expressed mRNA in the presence of chemical substance/absence: YBR124W,gene YBR124W,0.9
same,level of expressed mRNA in the presence of chemical substance/in its absence,gene YBR126C,2.1
same,The level of expressed mRNA in the presence of chemical substance/absence: YBR129C,gene YBR129C,1.3
same,level of expressed mRNA in the presence of chemical substance/in its absence,gene YBR145W,2.0
same,The level of expressed mRNA in the presence of chemical substance/absence: YBR162C,gene YBR162C,0.7
same,level of expressed mRNA in the presence of chemical substance/in its absence,gene YBR183W,1.4
same,level of expressed mRNA in the presence of chemical substance/in its absence,gene YBR222C,1.6
same,The level of expressed mRNA in the presence of chemical substance/absence: YBR255W,gene YBR255W,1.4
same,The level of expressed mRNA in the presence of chemical substance/absence: YBR281C,gene YBR281C,1.2
same,The level of expressed mRNA in the presence of chemical substance/absence: YBR287W,gene YBR287W,3.4
same,level of expressed mRNA in the presence of chemical substance/in its absence,gene YBR299W,0.7
same,level of expressed mRNA in the presence of chemical substance/in its absence,gene YCL009C,1.6
same,The level of expressed mRNA in the presence of chemical substance/absence: YCL042W,gene YCL042W,7.5
same,The level of expressed mRNA in the presence of chemical substance/absence: YCL044C,gene YCL044C,1.7
same,The level of expressed mRNA in the presence of chemical substance/absence: YCL056C,gene YCL056C,1.3
same,level of expressed mRNA in the presence of chemical substance/in its absence,gene YCL064C,1.6
same,The level of expressed mRNA in the presence of chemical substance/absence: YCR007C,gene YCR007C,1.5
same,level of expressed mRNA in the presence of chemical substance/in its absence,gene YCR037C,1.3
same,level of expressed mRNA in the presence of chemical substance/in its absence,gene YCR048W,1.3
same,level of expressed mRNA in the presence of chemical substance/in its absence,gene YCR098C,1.4
same,level of expressed mRNA in the presence of chemical substance/in its absence,gene YDL022W,1.5
same,The level of expressed mRNA in the presence of chemical substance/absence: YDL046W,gene YDL046W,1.5
same,The level of expressed mRNA in the presence of chemical substance/absence: YDL089W,gene YDL089W,1.9
same,The level of expressed mRNA in the presence of chemical substance/absence: YDL173W,gene YDL173W,1.7
same,The level of expressed mRNA in the presence of chemical substance/absence: YDL193W,gene YDL193W,1.4
same,The level of expressed mRNA in the presence of chemical substance/absence: YDL233W,gene YDL233W,1.8
same,level of expressed mRNA in the presence of chemical substance/in its absence,gene YDR009W,1.2
same,level of expressed mRNA in the presence of chemical substance/in its absence,gene YDR019C,1.0
same,The level of expressed mRNA in the presence of chemical substance/absence: YDR071C,gene YDR071C,1.3
same,The level of expressed mRNA in the presence of chemical substance/absence: YDR078C,gene YDR078C,1.1
same,The level of expressed mRNA in the presence of chemical substance/absence: YDR090C,gene YDR090C,0.8
same,The level of expressed mRNA in the presence of chemical substance/absence: YDR109C,gene YDR109C,1.4
same,The level of expressed mRNA in the presence of chemical substance/absence: YDR128W,gene YDR128W,1.1
same,The level of expressed mRNA in the presence of chemical substance/absence: YDR133C,gene YDR133C,0.1
same,The level of expressed mRNA in the presence of chemical substance/absence: YDR140W,gene YDR140W,2.0
same,The level of expressed mRNA in the presence of chemical substance/absence: YDR221W,gene YDR221W,1.0
same,The level of expressed mRNA in the presence of chemical substance/absence: YDR250C,gene YDR250C,1.2
same,The level of expressed mRNA in the presence of chemical substance/absence: YDR271C,gene YDR271C,1.5
same,The level of expressed mRNA in the presence of chemical substance/absence: YDR278C,gene YDR278C,0.7
same,The level of expressed mRNA in the presence of chemical substance/absence: YDR281C,gene YDR281C,0.7
same,The level of expressed mRNA in the presence of chemical substance/absence: YDR316W,gene YDR316W,0.6
same,The level of expressed mRNA in the presence of chemical substance/absence: YDR338C,gene YDR338C,1.3
same,The level of expressed mRNA in the presence of chemical substance/absence: YDR366C,gene YDR366C,0.8
same,level of expressed mRNA in the presence of chemical substance/in its absence,gene YDR380W,0.4
same,level of expressed mRNA in the presence of chemical substance/in its absence,gene YDR410C,1.2
same,The level of expressed mRNA in the presence of chemical substance/absence: YDR421W,gene YDR421W,0.6
same,The level of expressed mRNA in the presence of chemical substance/absence: YDR425W,gene YDR425W,1.4
same,The level of expressed mRNA in the presence of chemical substance/absence: YDR485C,gene YDR485C,1.2
same,level of expressed mRNA in the presence of chemical substance/in its absence,gene YDR487C,1.5
same,level of expressed mRNA in the presence of chemical substance/in its absence,gene YDR502C,1.2
same,The level of expressed mRNA in the presence of chemical substance/absence: YDR504C,gene YDR504C,2.2
same,level of expressed mRNA in the presence of chemical substance/in its absence,gene YEL011W,1.5
same,level of expressed mRNA in the presence of chemical substance/in its absence,gene YEL020C,1.2
same,The level of expressed mRNA in the presence of chemical substance/absence: YEL044W,gene YEL044W,1.3
same,level of expressed mRNA in the presence of chemical substance/in its absence,gene YER026C,1.9
same,level of expressed mRNA in the presence of chemical substance/in its absence,gene YER069W,1.4
same,The level of expressed mRNA in the presence of chemical substance/absence: YER092W,gene YER092W,1.2
same,The level of expressed mRNA in the presence of chemical substance/absence: YER182W,gene YER182W,0.9
same,The level of expressed mRNA in the presence of chemical substance/absence: YFL042C,gene YFL042C,1.7
same,level of expressed mRNA in the presence of chemical substance/in its absence,gene YFR015C,2.5
same,The level of expressed mRNA in the presence of chemical substance/absence: YFR026C,gene YFR026C,1.1
same,The level of expressed mRNA in the presence of chemical substance/absence: YFR056C,gene YFR056C,0.3
same,level of expressed mRNA in the presence of chemical substance/in its absence,gene YGL001C,1.0
same,level of expressed mRNA in the presence of chemical substance/in its absence,gene YGL022W,1.0
same,level of expressed mRNA in the presence of chemical substance/in its absence,gene YGL039W,1.5
same,The level of expressed mRNA in the presence of chemical substance/absence: YGL041C,gene YGL041C,1.0
same,The level of expressed mRNA in the presence of chemical substance/absence: YGL045W,gene YGL045W,1.3
same,The level of expressed mRNA in the presence of chemical substance/absence: YGL057C,gene YGL057C,1.3
same,The level of expressed mRNA in the presence of chemical substance/absence: YGL088W,gene YGL088W,0.7
same,level of expressed mRNA in the presence of chemical substance/in its absence,gene YGL104C,2.0
same,level of expressed mRNA in the presence of chemical substance/in its absence,gene YGL134W,0.7
same,level of expressed mRNA in the presence of chemical substance/in its absence,gene YGL154C,2.0
same,The level of expressed mRNA in the presence of chemical substance/absence: YGL183C,gene YGL183C,1.5
same,level of expressed mRNA in the presence of chemical substance/in its absence,gene YGL209W,1.9
same,The level of expressed mRNA in the presence of chemical substance/absence: YGL223C,gene YGL223C,1.7
same,level of expressed mRNA in the presence of chemical substance/in its absence,gene YGL253W,1.5
same,The level of expressed mRNA in the presence of chemical substance/absence: YGR038W,gene YGR038W,1.2
same,level of expressed mRNA in the presence of chemical substance/in its absence,gene YGR060W,0.6
same,The level of expressed mRNA in the presence of chemical substance/absence: YGR139W,gene YGR139W,0.4
same,The level of expressed mRNA in the presence of chemical substance/absence: YGR156W,gene YGR156W,1.8
same,The level of expressed mRNA in the presence of chemical substance/absence: YGR198W,gene YGR198W,1.3
same,The level of expressed mRNA in the presence of chemical substance/absence: YGR210C,gene YGR210C,1.0
same,The level of expressed mRNA in the presence of chemical substance/absence: YGR211W,gene YGR211W,0.8
same,The level of expressed mRNA in the presence of chemical substance/absence: YGR237C,gene YGR237C,1.6
same,The level of expressed mRNA in the presence of chemical substance/absence: YGR243W,gene YGR243W,1.1
same,The level of expressed mRNA in the presence of chemical substance/absence: YGR250C,gene YGR250C,1.7
same,The level of expressed mRNA in the presence of chemical substance/absence: YGR266W,gene YGR266W,1.1
same,The level of expressed mRNA in the presence of chemical substance/absence: YGR277C,gene YGR277C,1.6
